# Experimental data reported in patent publication US7329518B2, “Enzyme for producing optically active pyridineethanol derivatives” (Kaneka Corporation, priority 1999, dated 2008).
# B1: FPDH: purified NADH-dependent enzyme from Candida maris IFO 10003 reducing 5-acetylfuro[2,3-c]pyridine to the (R)-alcohol; SEQ ID NO:1 (protein, listed as Candida maris)
# chain: MSYNFANKVLIVTGGLSGIGLAVAKKFLQLGAKVTISDISATEKYNTVVGEFKTEGIDVKNVQYIQADASKEADNEKLISETLSAFGDLDYVCANAGIATFTQTTDISYDVWRKVTSINLDGVFMLDKLAAQYFLSKNKPGAIVNMGSIHSYVAAPGLSHYGAAKGGLKLLTQTMALEYAAKGIRVNSVNPGYIKTPLLDICPKEHMDYLITQHPIGRLGKPEEIASAVAFLCSDEATFINGISLLVDGGYTAR
# Columns and labels:
# [1] = system: FPDH; assay: Oxidation activity of FPDH against various compounds as substrates; assay type: biochemical, Candida maris IFO 10003; details: substrate 1 mM; 5-(1-(R)-hydroxyethyl)furo[2,3-c]pyridine = 100%; 0.25 mM NAD+, pH 8.0, 30° C.
# Procedure: Further, FPDH was examined for oxidation activity against various compounds. The oxidation activity was measured by allowing the reaction to proceed at 30° C. for 3 minutes in 3.0 ml of a reaction mixture containing 1 mM substrate, 0.25 mM NAD^+, 0.3% (vol/vol) dimethyl sulfoxide and 0.05 ml of the enzyme solution in 100 mM phosphate buffer (pH 8.0) and measuring the increase in absorbance at the wavelength 340 nm. These conditions were employed as standard reaction conditions for oxidizing activity substrate measurement. The enzyme activity reducing 1 μmole of NAD^+ to NADH in one minute under these reaction conditions was defined as 1 unit. The data shown in Table 10 are relative activities with the oxidation activity against the substrate 5-(1-(R)-hydroxyethyl)furo[2,3-c]pyridine being taken as 100%.
# [2] = system: FPDH; assay: Optimal temperature and optimal pH for the activity of FPDH; assay type: biochemical, Candida maris IFO 10003; details: pH varied 3.5 to 9.0; acetate, phosphate and Tris-hydrochloride buffer
# Procedure: Hereafter, the reducing activity was measured by allowing the reaction to proceed at 30° C. for 3 minutes in 3.0 ml of a reaction mixture containing 1 mM 5-acetylfuro[2,3-c]pyridine (substrate), 0.25 mM NADH, 0.3% (vol/vol) dimethyl sulfoxide and 0.05 ml of the enzyme solution in 100 mM phosphate buffer (pH 6.5) and measuring the decrease in absorbance at the wavelength 340 nm. These conditions were employed as standard reaction conditions for reducing activity measurement. The enzyme activity oxidizing 1 μmole of NADH to NAD^+ in one minute under these reaction conditions was defined as 1 unit.
# Activity measurements were conducted under the standard reaction conditions for reducing activity measurement as described in Example 14 except that the temperature alone was varied from 20 to 80° C.
# Activity measurements were conducted under the standard reaction conditions for reducing activity measurement as described in Example 14 while varying the pH within the range of 3.5 to 9.0 using acetate buffer, phosphate buffer and Tris-hydrochloride buffer as the buffer solution.
Molecule,Relative activity (oxidation activity) [1] [%],Optimal pH [2]
CC(O)CCc1ccccc1 (centres unmarked) [4-Phenyl-2-butanol],219,–
CC(O)c1ccncc1 (centres unmarked) [1-(4-Pyridyl)ethanol],24,–
CC(O)c1ccccn1 (centres unmarked) [1-(2-Pyridyl)ethanol],23,–
CC(O)c1cccnc1 (centres unmarked) [1-(3-Pyridyl)ethanol],110,–
B1,–,5.0-6.0
